This passage reports IC50 results from US11040035B2, “3-oxo-2,6-diphenyl-2,3-dihydropyridazine-4-carboxamides” (BAYER PHARMA AKTIENGESELLSCHAFT, priority 2016, dated 2021).

Data set [1] has as its target T1, AHR (Homo sapiens, UniProt P35869).
T1 sequence (P35869 11-848): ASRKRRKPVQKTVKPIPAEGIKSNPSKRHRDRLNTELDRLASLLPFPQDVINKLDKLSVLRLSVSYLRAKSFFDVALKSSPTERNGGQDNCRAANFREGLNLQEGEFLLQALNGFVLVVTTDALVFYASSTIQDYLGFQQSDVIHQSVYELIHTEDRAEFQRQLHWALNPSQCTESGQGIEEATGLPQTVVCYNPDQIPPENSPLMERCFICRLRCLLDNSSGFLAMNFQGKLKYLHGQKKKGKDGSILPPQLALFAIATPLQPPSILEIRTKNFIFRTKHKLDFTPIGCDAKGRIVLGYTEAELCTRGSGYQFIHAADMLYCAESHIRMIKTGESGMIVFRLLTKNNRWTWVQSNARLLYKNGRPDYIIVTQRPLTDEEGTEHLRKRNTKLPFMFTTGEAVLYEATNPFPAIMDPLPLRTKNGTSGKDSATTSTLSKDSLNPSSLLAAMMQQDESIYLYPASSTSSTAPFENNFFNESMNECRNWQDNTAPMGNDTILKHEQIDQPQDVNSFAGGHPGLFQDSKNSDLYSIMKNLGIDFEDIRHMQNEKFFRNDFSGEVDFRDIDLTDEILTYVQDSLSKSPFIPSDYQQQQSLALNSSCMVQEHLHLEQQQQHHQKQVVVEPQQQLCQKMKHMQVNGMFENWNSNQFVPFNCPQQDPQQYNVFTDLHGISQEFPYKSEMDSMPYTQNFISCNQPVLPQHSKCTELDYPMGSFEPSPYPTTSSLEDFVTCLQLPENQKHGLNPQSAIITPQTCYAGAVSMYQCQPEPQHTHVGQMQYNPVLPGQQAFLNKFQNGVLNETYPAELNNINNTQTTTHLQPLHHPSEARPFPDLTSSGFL
As to the kind of experiment: In vitro assay 2: agonism in human cell line (transactivation assay).

Data set [2] relates to AHR-regulated gene CYP1A1. As to the kind of experiment: In vitro assay 3: AHR-regulated CYP1A1 expression in human cell line (U937, qPCR). In general terms: In qPCR the cycle at which signal appears reflects the starting amount.
Data set [3] has as its target T1, AHR. As to the kind of experiment: In vitro assay 1: antagonism in human cell line (transactivation assay, kynurenic acid prestimulated). To be noted: Assay 1: AHR-luc Hum Antagonism IC50 [M], 150 μM kynurenic acid, 20 hours, firefly luciferase.
The mark [4] stands for this setting: Assay 2: AHR-luc Hum Agonism IC50 [M], no kynurenic acid, 20 hours, firefly luciferase.
Setting [5] is: Homo sapiens, U-937, 6 h, read-out: Assay 3: Hum CYP1A1 Antagonism IC50 [M], U937 cells, 200 μM KA, 6 hours, qPCR.
Where [6] appears, read: read-out: Assay 3: Hum CYP1A1 Antagonism IC50, U937 cells, 200 μM KA, 6 hours, qPCR.
Setting [7] is: read-out: Assay 2: AHR-luc Hum Agonism IC50, no kynurenic acid, 20 hours, firefly luciferase.

By IC50 is commonly meant the concentration that inhibits the measured activity by half.

Like-named read-outs stand apart in the source and are kept apart here.

Turning to `COC[C@H](CO)NC(=O)c1cc(-c2ccc(C(F)(F)F)cc2)nn(-c2cccc(F)c2)c1=O` [Example 257, (+)-2-(3-Fluorophenyl)-N-[(2S)-1-hydroxy-3-methoxypropan-2-yl]-3-oxo-6-[4-(trifluoromethyl)phenyl]-2,3-dihydropyridazine-4-carboxamide], the IC50 against AHR [1] (setting [4]) is greater than 2e-05 M; in data set [2] (setting [5]), 1.34e-07 M; on AHR [3] it was 6.37e-08 M.

Turning to `O=C(N[C@@H]1CCCC[C@@H]1O)c1cc(-c2ccc(Cl)cc2)nn(-c2cccc(F)c2)c1=O` (relative stereo) [Example 103, 6-(4-Chlorophenyl)-2-(3-fluorophenyl)-N-(cis-2-hydroxycyclohexyl)-3-oxo-2,3-dihydropyridazine-4-carboxamide], the figures for the 50% inhibitory concentration (IC50) (against AHR [1] (setting [4]); in data set [2] (setting [5]); against AHR [3]) were greater than 2e-05 M, 4.47e-09 M and 1.59e-08 M, respectively.

For the compound `CC(C)(CO)NC(=O)c1cc(-c2ccc(Cl)cc2)nn(-c2cccc(F)c2)c1=O` [Example 186, 6-(4-Chlorophenyl)-2-(3-fluorophenyl)-N-(1-hydroxy-2-methylpropan-2-yl)-3-oxo-2,3-dihydropyridazine-4-carboxamide], the half-inhibitory concentration (IC50) against AHR [1] (setting [4]) is greater than 2e-05 M; in data set [2] (setting [5]), 1.34e-07 M; at AHR [3] it was 1.88e-07 M.

Consider `Cc1ccc(-c2cc(C(=O)NCC(O)C(C)C)c(=O)n(-c3cc(F)cc(F)c3)n2)cc1` (single isomer, unassigned) [Example 57, 2-(3,5-Difluorophenyl)-N-(2-hydroxy-3-methylbutyl)-6-(4-methylphenyl)-3-oxo-2,3-dihydropyridazine-4-carboxamide], for which the half-inhibitory concentration (IC50) against AHR [1] (setting [4]) was greater than 2e-05 M; in data set [2] (setting [6]), 3.83e-08 M; on AHR [3], 3.49e-08 M.

Consider `O=C(N[C@H]1COC[C@@H]1O)c1cc(-c2ccc(Cl)cc2)nn(-c2cccc(F)c2)c1=O` [Example 167, 6-(4-Chlorophenyl)-2-(3-fluorophenyl)-N-[(3S,4R)-4-hydroxytetrahydrofuran-3-yl]-3-oxo-2,3-dihydropyridazine-4-carboxamide], for which the concentration for half-maximal inhibition (IC50) on AHR [1] (setting [4]) was greater than 2e-05 M; in data set [2] (setting [5]), 2.03e-07 M; on AHR [3], 1.63e-07 M.

For the compound `Cc1ccc(-c2cc(C(=O)N[C@@H](C)CO)c(=O)n(-c3cc(F)cc(F)c3)n2)cc1` [Example 55, 2-(3,5-Difluorophenyl)-N-[(2S)-1-hydroxypropan-2-yl]-6-(4-methylphenyl)-3-oxo-2,3-dihydropyridazine-4-carboxamide], the 50% inhibitory concentration (IC50) is greater than 2e-05 M at AHR [1] (setting [4]), 1.54e-08 M in data set [2] (setting [5]) and 1.8e-08 M at AHR [3].

As to `COc1ccc(-c2cc(C(=O)NC(CO)C(F)(F)F)c(=O)n(-c3cccc(F)c3)n2)cc1` (single isomer, unassigned) [Example 102, 2-(3-Fluorophenyl)-6-(4-methoxyphenyl)-3-oxo-N-(1,1,1-trifluoro-3-hydroxypropan-2-yl)-2,3-dihydropyridazine-4-carboxamide], the results for the IC50 (on AHR [1] (setting [7]); in data set [2] (setting [6]); on AHR [3]) were greater than 2e-05 M, 4.37e-08 M and 4.22e-08 M, respectively.

As for `O=C(NC(CO)C1CCCO1)c1cc(-c2ccc(C(F)(F)F)cc2)nn(-c2cccc(F)c2)c1=O` (racemic) [Example 263, 3,6-Anhydro-2,4,5-trideoxy-2-[({2-(3-fluorophenyl)-3-oxo-6-[4-(trifluoromethyl)phenyl]-2,3-dihydropyridazin-4-yl}carbonyl)amino]-DL-erythro-hexitol and 1,4-anhydro-2,3,5-trideoxy-5-[({2-(3-fluorophenyl)-3-oxo-6-[4-(trifluoromethyl)phenyl]-2,3-dihydropyridazin-4-yl}carbonyl)amino]-DL-threo-hexitol], the IC50 against AHR [1] (setting [4]) was greater than 2e-05 M; in data set [2] (setting [5]) it was 6.06e-08 M; on AHR [3], 3.54e-08 M.

`O=C(NC(CO)C1CCOC1)c1cc(-c2ccc(OC(F)(F)F)cc2)nn(-c2cccc(F)c2)c1=O` (single isomer, unassigned) [Example 177, 2-(3-Fluorophenyl)-N-[2-hydroxy-1-(tetrahydrofuran-3-yl)ethyl]-3-oxo-6-[4-(trifluoromethoxy)phenyl]-2,3-dihydropyridazine-4-carboxamide]: the IC50 on AHR [1] (setting [7]) is greater than 2e-05 M; in data set [2] (setting [6]) it was 6e-07 M; at AHR [3] it was 3.19e-07 M.

Consider `C[C@@H](CO)NC(=O)c1cc(-c2ccc(N3CCOCC3)cc2)nn(-c2cccc(F)c2)c1=O` [Example 374, 2-(3-fluorophenyl)-N-[(2S)-1-hydroxypropan-2-yl]-6-[4-(morpholin-4-yl)phenyl]-3-oxo-2,3-dihydropyridazine-4-carboxamide], for which the figures for the IC50 (on AHR [1] (setting [4]); in data set [2] (setting [5]); at AHR [3]) were greater than 2e-05 M, greater than 3e-07 M and 2.65e-08 M, respectively.

Regarding `C[C@H](O)[C@H](C)NC(=O)c1cc(-c2ccc(OC(F)(F)F)cc2)nn(-c2cccc(F)c2)c1=O` [Example 185, 2-(3-Fluorophenyl)-N-[(2S,3S)-3-hydroxybutan-2-yl]-3-oxo-6-[4-(trifluoromethoxy)phenyl]-2,3-dihydropyridazine-4-carboxamide], the values for the IC50 (against AHR [1] (setting [4]); in data set [2] (setting [5]); at AHR [3]) were greater than 2e-05 M, 8.06e-08 M and 3.9e-08 M, respectively.

Take `O=C(NCC1(O)COC1)c1cc(-c2ccc(Cl)cc2)nn(-c2cccc(F)c2)c1=O` [Example 331, 6-(4-chlorophenyl)-2-(3-fluorophenyl)-N-[(3-hydroxyoxetan-3-yl)methyl]-3-oxo-2,3-dihydropyridazine-4-carboxamide]: the concentration for half-maximal inhibition (IC50) was greater than 2e-05 M on AHR [1] (setting [4]), 1.42e-07 M in data set [2] (setting [5]) and 7.87e-08 M against AHR [3].

Consider `O=C(NC(CO)C1CCOC1)c1cc(-c2ccc(OC(F)(F)F)cc2)nn(-c2cccc(F)c2)c1=O` (single isomer, unassigned) [Example 178, 2-(3-Fluorophenyl)-N-[2-hydroxy-1-(tetrahydrofuran-3-yl)ethyl]-3-oxo-6-[4-(trifluoromethoxy)phenyl]-2,3-dihydropyridazine-4-carboxamide], for which the half-maximal inhibitory concentration (IC50) was greater than 2e-05 M at AHR [1] (setting [7]), 1.13e-07 M in data set [2] (setting [6]) and 1.27e-07 M at AHR [3].

Turning to `O=C(NC(CO)C(F)(F)F)c1cc(-c2ccc(OC(F)(F)F)cc2)nn(-c2cccc(F)c2)c1=O` (single isomer, unassigned) [Example 170, 2-(3-Fluorophenyl)-3-oxo-N-(1,1,1-trifluoro-3-hydroxypropan-2-yl)-6-[4-(trifluoromethoxy)phenyl]-2,3-dihydropyridazine-4-carboxamide], the IC50 against AHR [1] (setting [4]) was greater than 2e-05 M; in data set [2] (setting [5]) it was 1.42e-08 M; at AHR [3] it was 1.19e-08 M.

Turning to `O=C(N[C@@H]1CCCC[C@H]1O)c1cc(-c2ccc(Cl)cc2)nn(-c2cccc(F)c2)c1=O` [Example 164, 6-(4-Chlorophenyl)-2-(3-fluorophenyl)-N-[(1R,2R)-2-hydroxycyclohexyl]-3-oxo-2,3-dihydropyridazine-4-carboxamide], the concentration for half-maximal inhibition (IC50) was greater than 2e-05 M on AHR [1] (setting [4]), 2e-06 M in data set [2] (setting [5]) and 5.96e-07 M against AHR [3].

Consider `O=C(NC(CO)C1CCOC1)c1cc(-c2ccc(Cl)c(F)c2)nn(-c2cccc(F)c2)c1=O` (single isomer, unassigned) [Example 293, 6-(4-Chloro-3-fluorophenyl)-2-(3-fluorophenyl)-N-[2-hydroxy-1-(tetrahydrofuran-3-yl)ethyl]-3-oxo-2,3-dihydropyridazine-4-carboxamide], for which the figures for the IC50 (on AHR [1] (setting [7]); in data set [2] (setting [5]); on AHR [3]) were greater than 2e-05 M, 6.98e-08 M and 4.92e-08 M, respectively.
